Earlier results on one molecule are cited in patent publication US20200230099A1, “Stable Pharmaceutical Composition Comprising Zanamivir” (Dae Hwa Pharma. Co., Ltd., priority 2017, published 2020).

Like-named read-outs stand apart in the source and are kept apart here.

For the series the following is noted: in vivo.

On to `CC(=O)N[C@H]1[C@H]([C@H](O)[C@H](O)CO)OC(C(=O)O)=C[C@@H]1N=C(N)N` [zanamivir, 5-(acetylamino)-4-[(aminoiminomethyl)amino]-2,6-anhydro-3,4,5-trideoxy-D-glycero-D-galacto-non-2-enonic acid], for which the bioavailability entry was “about 2%”. For the setting “inhaled or intranasal”, the bioavailability was 4-17%.
